Source: ChEMBL document CHEMBL3232955, “Impact of stereospecific intramolecular hydrogen bonding on cell permeability and physicochemical properties” (J Med Chem, 2014)
Values after ≈ are worked out from the molar mass of the structure shown.

Legend:
[1] = Lipophilicity, log D of the compound by shake flask technique; format: physicochemical; details: octanol/water
[2] = Solubility of the compound in phosphate buffered saline at pH 7.4 containing 1% DMSO after 18 hrs by UPLC-MS method; format: physicochemical; details: phosphate buffered saline with 1% DMSO
[3] = Dissociation constant, pKa of the compound for N34 pyridine group by dip probe absorption spectroscopy; format: physicochemical
[4] = Dissociation constant, pKa of the compound for N15, 3'-amine group by dip probe absorption spectroscopy; format: physicochemical
[5] = Efflux ratio of apparent permeability from basolateral to apical side to apical to basolateral side of human Caco2 cells; format: ADME, cell-based; details: Caco-2

Row | SMILES | logD [1] | solubility kinetic at 18 h [2] [µM] | pKa [3] | pKa [4] | efflux ratio [5]
1 | C[C@H](CO)N1C(=O)c2cccc(NC(=O)c3ccncc3)c2O[C@@H](CN(C)Cc2ccc(Oc3ccccc3)cc2)[C@H]1C | 3.4 | 86 (≈ 49.9 µg/mL) | 2.98 | 7.07 | 0.47
2 | C[C@H](CO)N1C(=O)c2cccc(NC(=O)c3ccncc3)c2O[C@H](CN(C)Cc2ccc(Oc3ccccc3)cc2)[C@H]1C |  | 1 (≈ 0.581 µg/mL) | 2.77 | 6.08 | 0.31
3 | C[C@@H](CO)N1C(=O)c2cccc(NC(=O)c3ccncc3)c2O[C@@H](CN(C)Cc2ccc(Oc3ccccc3)cc2)[C@@H]1C |  | 1 (≈ 0.581 µg/mL) | 2.76 | 6.08 | 0.36
4 | C[C@@H]1[C@@H](CN(C)Cc2ccc(Oc3ccccc3)cc2)Oc2c(NC(=O)c3ccncc3)cccc2C(=O)N1[C@@H](C)CO |  | 1 (≈ 0.581 µg/mL) | 2.77 | 6.18 | 0.1
5 | C[C@@H](CO)N1C(=O)c2cccc(NC(=O)c3ccncc3)c2O[C@H](CN(C)Cc2ccc(Oc3ccccc3)cc2)[C@@H]1C | 3.4 | 93 (≈ 54 µg/mL) | 2.98 | 7.08 | 0.41
6 | C[C@H](CO)N1C(=O)c2cccc(NC(=O)c3ccncc3)c2O[C@H](CN(C)Cc2ccc(Oc3ccccc3)cc2)[C@@H]1C | 3.4 | 98 (≈ 56.9 µg/mL) | 2.98 | 7.16 | 0.36
7 | C[C@H](CO)N1C(=O)c2cccc(NC(=O)c3ccncc3)c2O[C@@H](CN(C)Cc2ccc(Oc3ccccc3)cc2)[C@@H]1C |  | 2 (≈ 1.16 µg/mL) | 2.76 | 6.14 | 0.42
8 | C[C@@H]1[C@H](CN(C)Cc2ccc(Oc3ccccc3)cc2)Oc2c(NC(=O)c3ccncc3)cccc2C(=O)N1[C@@H](C)CO | 3.4 | 87 (≈ 50.5 µg/mL) | 2.97 | 7.16 | 0.48
